Reference: patent US6465515B2, “Solid compositions suitable for oral administration containing non-hydroscopic salts of L-carnitine and alkanoyl L-carnitines” (Sigma-Tau Industrie Farmaceutiche Riunite S.p.A., priority 1998, dated 2002)

Assay: hygroscopicity of the salts
Format: physicochemical
Conditions: isolated solid

SMILES	hygroscopicity
CCC(=O)O[C@H](CC(=O)O)C[N+](C)(C)C [Example 1, Propionyl L-carnitine Pamoate]	non-hygroscopic
CC(=O)O[C@H](CC(=O)O)C[N+](C)(C)C [Example 3, Acetyl L-carnitine Pamoate]	non-hygroscopic
